In patent US9128097B2, “Method and kit for assessing viable cells” (ChemoMetec A/S, priority 2008, dated 2015):

Columns and labels:
[1] = test system: HEK293 cells; assay: NAM/PI staining of outgrown HEK293 cells, fluorescence microscopy; assay type: cell-based, Human; settings: HEK293 cells treated with 0.25% Triton X-100; 10 μg/mL NAM
Protocol: Materials and Methods. HEK293 cells were grown at 37° C. in a humidified air atmosphere with 5% CO2 in DMEM (Invitrogen, #31966) supplemented with 10% heat-inactivated fetal bovine serum (Invitrogen, #10108-165). Cells were harvested with 0.5 mL of trypsin (Invitrogen, #25300) and neutralized with 5 mL medium (DMEM+10% FCS) two days after they had reached full confluency. These outgrown HEK293 cells (cell density 1.6×10^6, 78% viable determined using the NC-100 NucleoCounter system following the manufacturer's (ChemoMetec) protocol) were stained with 10 μg/mL NAM (Sigma, #01665). Another cell sample were treated with 0.25% Triton X-100 (Sigma, #T9284) and hereafter added 10 μg/mL NAM. After staining, each cell sample was loaded into a NucleoCassette, containing the DNA stain propidium iodide (PI). The cells were investigated using an Olympus IX50 fluorescence microscope, and images were captured using a Lumenera CCD camera and in-house developed software. PI and NAM fluorescence were detected using, respectively, U-MWG2 (green long pass: 510-550 nm) and U-MNUA2 (UV band pass, 330-385 nm) filter cubes (Olympus).

[2] = test system: Jurkat (JM) cells; assay: Staining of proliferating Jurkat cells with labelling agent and propidium iodide, fluorescence microscopy; assay type: cell-based; settings: 10 μL agent (100 μg pr. mL DMSO) added to 90 μL cells, only exception PI positive cells
Protocol: (§1) Materials and Methods. Jurkat (JM) cells were grown at 37° C. in a humidified air atmosphere with 5% CO2 in RPMI (Invitrogen, #61870) supplemented with 10% heat-inactivated fetal bovine serum (Invitrogen, #10108-165). 90 μL proliferating Jurkat cells (cell density 1.2×10^6, 99% viable determined using the NC-100 NucleoCounter system following the manufacturer's (ChemoMetec A/S) protocol) were added 10 μL NAM (N-(9-acridinyl)maleimide, Sigma, #01665, CAS no. 49759-20-8) dissolved in DMSO (100 μg NAM pr. mL DMSO) and mixed by pipetting. Cells were loaded into a NucleoCassette, containing the DNA stain propidium iodide (PI). The cells were investigated using an Olympus IX50 fluorescence microscope, and images were captured using a Lumenera CCD camera and in-house developed software. PI and NAM fluorescence were detected using, respectively, U-MWG2 (green long pass: 510-550 nm) and U-MNUA2 (UV band pass, 330-385 nm) filter cubes (Olympus).
as §1, with “1.0×10^6,” for “1.2×10^6,”, “(ChemoMetec)” for “(ChemoMetec A/S)”, “CPM (7-diethylamino-3-[4′-maleimidylphenyl]-4-methylcoumarin, Chemodex Ltd.,” for “NAM (N-(9-acridinyl)maleimide, Sigma, #01665,”, “76877-33-3)” for “49759-20-8)”, “CPM” for “NAM”
as §1, with “1.1×10^6, 98%” for “1.2×10^6, 99%”, “(ChemoMetec)” for “(ChemoMetec A/S)”, “PM (N-(1-Pyrenyl)maleimide, Sigma P7908” for “NAM (N-(9-acridinyl)maleimide, Sigma, #01665,”, “42189-56-0)” for “49759-20-8)”, “PM” for “NAM”, “Cells were loaded into a NucleoCassette, containing the DNA stain propidium iodide (PI).” left out
Materials and Methods. […] 90 μL proliferating Jurkat cells (cell density 1.1×10^6, 98% viable determined using the NC-100 NucleoCounter system following the manufacturer's (ChemoMetec) protocol) were added 10 μL CPI (7-diethylamino-3-((4′-(iodoacetyl)amino)phenyl)-4-methylcoumarin, Sigma 78264 CAS no. 76877-34-4) dissolved in DMSO (100 μg CPI pr. mL DMSO) and mixed by pipetting. […] The cells were investigated using an Olympus IX50 fluorescence microscope, and images were captured using a Lumenera CCD camera and in-house developed software. PI and CPI fluorescence were detected using, respectively, U-MWG2 (green long pass: 510-550 nm) and U-MNUA2 (UV band pass, 330-385 nm) filter cubes (Olympus). […]

[3] = test system: bone marrow derived dendritic cells (BM-DCs); assay: Staining of bone marrow derived dendritic cells with labelling agent and PI; assay type: cell-based, murine; settings: dendritic cells 97% viable; 10 μL mCB (100 μg pr. mL DMSO) to 90 μL cells; incubated at room temperature for 1 hour
From the text: Materials and Methods. Dendritic cells were developed from murine bone marrow derived cells as described by “Lutz, M. B., N. Kukutsch, A. L. Ogilvie, S. Rossner, F. Koch, N. Romani, and G. Schuler. 1999. An advanced culture method for generating large quantities of highly pure dendritic cells from mouse bone marrow. J Immunol Methods 223:77-92”. Bone marrow cells were harvested aseptically in the laminar flow hood as described in example 11. Washed and resuspended bone marrow cells were resuspended in RPMI 1640 (Invitrogen, #61870) supplemented with 10% heat-inactivated fetal bovine serum (Invitrogen, #10108-165), 100 U/mL penicillin and 100 μg/mL streptomycin (Invitrogen, #15140-122). […] 90 μL dendritic cells (cell density 1.2×10^6, 97% viable determined using the NC-100 NucleoCounter system following the manufacturer's (ChemoMetec A/S) protocol) were added 10 μL NAM (N-(9-acridinyl)maleimide, Sigma, #01665, CAS no. 49759-20-8) dissolved in DMSO (100 μg NAM pr. mL DMSO) and mixed by pipetting. […] The cells were investigated using an Olympus IX50 fluorescence microscope, and images were captured using a Lumenera CCD camera and in-house developed software. PI and NAM fluorescence were detected using, respectively, U-MWG2 (green long pass: 510-550 nm) and U-MNUA2 (UV band pass, 330-385 nm) filter cubes (Olympus). […]

SMILES | staining of cells (UV filter) versus PI positive cells [2] | further results
CC[N+](C)(CC)CCC[n+]1c(-c2ccccc2)c2cc(N)ccc2c2ccc(N)cc21.[I-].[I-] [PI, propidium iodide] |  | staining of Triton X-100 treated cells [1]: PI positive
CCN(CC)c1ccc2c(C)c(-c3ccc(N4C(=O)C=CC4=O)cc3)c(=O)oc2c1 [CPM, 7-diethylamino-3-[4′-maleimidylphenyl]-4-methylcoumarin] | nearly all cells were stained by CPM | 
Cc1c(C)n2c(CCl)c(C)c(=O)n2c1=O [mCB, monochlorobimane] |  | staining of cells (UV filter) versus PI positive cells [3]: nearly all the dendritic cells were stained by mCB
O=C1C=CC(=O)N1c1ccc2ccc3cccc4ccc1c2c34 [PM, N-(1-Pyrenyl)maleimide] | nearly all cells were stained by PM | 
CCN(CC)c1ccc2c(C)c(-c3ccc(NC(=O)CI)cc3)c(=O)oc2c1 [CPI, 7-diethylamino-3-((4′-(iodoacetyl)amino)phenyl)-4-methylcoumarin] | nearly all cells were stained by CPI | 
